Tests used:
Beta-secretase 2 = target: T1, Beta-secretase 2 (Homo sapiens, UniProt Q9Y5Z0); test: Selectivity tested against Beta-secretase 2 (BACE) in human
T1 sequence (Q9Y5Z0 whole entry): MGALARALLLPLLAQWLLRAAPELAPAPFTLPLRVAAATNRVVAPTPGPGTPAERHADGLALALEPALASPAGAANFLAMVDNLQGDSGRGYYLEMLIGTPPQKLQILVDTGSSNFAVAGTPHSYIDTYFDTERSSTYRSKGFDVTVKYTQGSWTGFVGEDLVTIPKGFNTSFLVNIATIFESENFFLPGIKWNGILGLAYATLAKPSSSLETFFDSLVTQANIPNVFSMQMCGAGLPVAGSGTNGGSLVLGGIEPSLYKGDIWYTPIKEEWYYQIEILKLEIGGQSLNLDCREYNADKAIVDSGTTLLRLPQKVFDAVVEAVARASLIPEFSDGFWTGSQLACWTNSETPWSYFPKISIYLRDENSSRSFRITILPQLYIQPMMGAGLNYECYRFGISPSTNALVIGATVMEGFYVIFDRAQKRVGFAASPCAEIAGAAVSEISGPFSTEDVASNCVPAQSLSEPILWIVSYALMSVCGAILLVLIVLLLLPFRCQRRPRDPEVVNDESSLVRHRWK

HEK293 = test: In vitro inhibitory activity against beta-amyloid peptide (Abeta) in HEK293/APP751swe cells; assay type: functional, cell-based; details: Homo sapiens
Beta-secretase 1 = Beta-secretase 1 (Homo sapiens, UniProt P56817); test: In vitro inhibition of Beta-secretase-1 in HEK293 (Human Embryonic Kidney) cell line.; assay type: cell-based
Chain of Beta-secretase 1 (P56817 whole entry): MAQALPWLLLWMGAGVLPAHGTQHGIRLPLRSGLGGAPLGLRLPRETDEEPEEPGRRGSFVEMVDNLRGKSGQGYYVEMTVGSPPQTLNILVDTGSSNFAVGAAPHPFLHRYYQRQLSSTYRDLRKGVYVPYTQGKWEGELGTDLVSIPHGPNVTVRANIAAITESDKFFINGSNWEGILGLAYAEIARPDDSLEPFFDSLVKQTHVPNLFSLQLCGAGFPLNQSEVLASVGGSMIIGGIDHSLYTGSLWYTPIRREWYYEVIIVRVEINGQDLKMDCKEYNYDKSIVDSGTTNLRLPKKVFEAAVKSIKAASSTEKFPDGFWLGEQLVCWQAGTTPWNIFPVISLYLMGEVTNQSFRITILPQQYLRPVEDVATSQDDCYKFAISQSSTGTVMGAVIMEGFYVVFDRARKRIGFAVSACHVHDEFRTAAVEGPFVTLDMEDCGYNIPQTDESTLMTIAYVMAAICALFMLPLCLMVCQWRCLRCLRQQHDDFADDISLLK

Compound | IC50 (Beta-secretase 2) [nM] | IC50 (HEK293) [nM] | IC50 (Beta-secretase 1) [nM]
CSCC[C@H](NC(=O)[C@@H](NC(=O)OC(C)(C)C)C(C)C)C(=O)N[C@@H](CC(C)C)[C@@H](O)C[C@@H](C)C(=O)N[C@H](C(=O)NCc1ccccc1)C(C)C | 500 |  | 
CSCC[C@H](NC(=O)[C@@H](NC(=O)OC(C)(C)C)C(C)C)C(=O)N[C@@H](Cc1ccccc1)[C@@H](O)C[C@@H](C)C(=O)N[C@H](C(=O)NCc1ccccc1)C(C)C |  | 22000 | 28
CC[C@@H](C)[C@H](NC(=O)OC(C)(C)C)C(=O)N[C@@H](C)C(=O)N[C@@H](Cc1ccccc1)[C@@H](O)CC(C)C(=O)NC(C(=O)NCc1ccncc1)C(C)C (single isomer, unassigned) |  | 410 | 42
CC(C[C@H](O)[C@H](Cc1ccccc1)NC(=O)C(C)NC(=O)[C@@H](NC(=O)OC(C)(C)C)C(C)C)C(=O)NC(C(=O)NCc1ccncc1)C(C)C (single isomer, unassigned) |  | 48000 | 1060
CC(C[C@H](O)[C@H](Cc1ccccc1)NC(=O)[C@H](C)NC(=O)[C@H](CCCC(F)(F)F)NC(=O)OC(C)(C)C)C(=O)NC(C(=O)NCc1ccncc1)C(C)C (single isomer, unassigned) |  | 13400 | 419
CC(C)C[C@H](NC(=O)OC(C)(C)C)C(=O)N[C@@H](C)C(=O)N[C@@H](Cc1ccccc1)[C@@H](O)CC(C)C(=O)NC(C(=O)NCc1ccncc1)C(C)C (single isomer, unassigned) |  | 860 | 63
CSCC[C@H](NC(=O)[C@@H](NC(=O)OC(C)(C)C)C(C)C)C(=O)N[C@@H](Cc1ccccc1)[C@@H](O)CC(C)C(=O)NC(C(=O)NCc1ccncc1)C(C)C (single isomer, unassigned) |  | 1700 | 70
COCC[C@H](NC(=O)[C@@H](NC(=O)OC(C)(C)C)C(C)C)C(=O)N[C@@H](Cc1ccccc1)[C@@H](O)CC(C)C(=O)NC(C(=O)NCc1ccncc1)C(C)C (single isomer, unassigned) |  | 2900 | 127
CC[C@H](NC(=O)OC(C)(C)C)C(=O)N[C@@H](C)C(=O)N[C@@H](Cc1ccccc1)[C@@H](O)CC(C)C(=O)NC(C(=O)NCc1ccncc1)C(C)C (single isomer, unassigned) |  | 2800 | 75
CCC[C@H](NC(=O)OC(C)(C)C)C(=O)N[C@@H](C)C(=O)N[C@@H](Cc1ccccc1)[C@@H](O)CC(C)C(=O)NC(C(=O)NCc1ccncc1)C(C)C (single isomer, unassigned) |  | 1400 | 41
CCC[C@H](NC(=O)OC(C)(C)C)C(=O)N[C@@H](CCSC)C(=O)N[C@@H](Cc1ccccc1)[C@@H](O)CC(C)C(=O)NC(C(=O)NCc1ccncc1)C(C)C (single isomer, unassigned) |  | 990 | 60
CC(C[C@H](O)[C@H](Cc1ccccc1)NC(=O)[C@H](C)NC(=O)[C@H](CN(C)C)NC(=O)OC(C)(C)C)C(=O)NC(C(=O)NCc1ccncc1)C(C)C (single isomer, unassigned) |  |  | 2530
CC(C[C@H](O)[C@H](Cc1ccccc1)NC(=O)[C@H](C)NC(=O)[C@H](CC(F)F)NC(=O)OC(C)(C)C)C(=O)NC(C(=O)NCc1ccncc1)C(C)C (single isomer, unassigned) |  | 400 | 45
CC(C[C@H](O)[C@H](Cc1ccccc1)NC(=O)[C@H](C)NC(=O)[C@H](CCN(C)C)NC(=O)OC(C)(C)C)C(=O)NC(C(=O)NCc1ccncc1)C(C)C (single isomer, unassigned) |  |  | 89000
CC(C[C@H](O)[C@H](Cc1ccccc1)NC(=O)[C@H](C)NC(=O)[C@@H](NC(=O)OC(C)(C)C)C(C)C)C(=O)NC(C(=O)NCc1ccncc1)C(C)C (single isomer, unassigned) |  | 2100 | 82
COCC[C@H](NC(=O)OC(C)(C)C)C(=O)N[C@@H](C)C(=O)N[C@@H](Cc1ccccc1)[C@@H](O)CC(C)C(=O)NC(C(=O)NCc1ccncc1)C(C)C (single isomer, unassigned) |  |  | 705
COC[C@H](NC(=O)OC(C)(C)C)C(=O)N[C@@H](C)C(=O)N[C@@H](Cc1ccccc1)[C@@H](O)CC(C)C(=O)NC(C(=O)NCc1ccncc1)C(C)C (single isomer, unassigned) |  | 4990 | 118
CC(C[C@H](O)[C@H](Cc1ccccc1)NC(=O)[C@H](C)NC(=O)[C@H](CC(F)(F)C(F)F)NC(=O)OC(C)(C)C)C(=O)NC(C(=O)NCc1ccncc1)C(C)C (single isomer, unassigned) |  | 1620 | 281

— ChEMBL document CHEMBL1146698, “Phe*-Ala-based pentapeptide mimetics are BACE inhibitors: P2 and P3 SAR” (Bioorg Med Chem Lett, 2004)
